From US20240156825A1, “USE OF SELECTIVE VEGFR2 AND FGFR1 INHIBITORS” (Fountain Therapeutics Inc., priority 2022, published 2024)
Read-outs that look alike come from different tables or passages of the source.

Key:
VEGFR2 and FGFR1 = experiment: Selection of compounds that selectively inhibit both VEGFR2 and FGFR1 (average relative IC50); assay type: biochemical;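 note: relative IC50 is the IC50 for VEGFR2 or FGFR1 divided by the next-lowest IC50 reported against any target gene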
VEGFR2 [1] = target: T1, VEGFR2 (Homo sapiens, UniProt P35968)
T1 sequence (P35968 20-1356, species assumed): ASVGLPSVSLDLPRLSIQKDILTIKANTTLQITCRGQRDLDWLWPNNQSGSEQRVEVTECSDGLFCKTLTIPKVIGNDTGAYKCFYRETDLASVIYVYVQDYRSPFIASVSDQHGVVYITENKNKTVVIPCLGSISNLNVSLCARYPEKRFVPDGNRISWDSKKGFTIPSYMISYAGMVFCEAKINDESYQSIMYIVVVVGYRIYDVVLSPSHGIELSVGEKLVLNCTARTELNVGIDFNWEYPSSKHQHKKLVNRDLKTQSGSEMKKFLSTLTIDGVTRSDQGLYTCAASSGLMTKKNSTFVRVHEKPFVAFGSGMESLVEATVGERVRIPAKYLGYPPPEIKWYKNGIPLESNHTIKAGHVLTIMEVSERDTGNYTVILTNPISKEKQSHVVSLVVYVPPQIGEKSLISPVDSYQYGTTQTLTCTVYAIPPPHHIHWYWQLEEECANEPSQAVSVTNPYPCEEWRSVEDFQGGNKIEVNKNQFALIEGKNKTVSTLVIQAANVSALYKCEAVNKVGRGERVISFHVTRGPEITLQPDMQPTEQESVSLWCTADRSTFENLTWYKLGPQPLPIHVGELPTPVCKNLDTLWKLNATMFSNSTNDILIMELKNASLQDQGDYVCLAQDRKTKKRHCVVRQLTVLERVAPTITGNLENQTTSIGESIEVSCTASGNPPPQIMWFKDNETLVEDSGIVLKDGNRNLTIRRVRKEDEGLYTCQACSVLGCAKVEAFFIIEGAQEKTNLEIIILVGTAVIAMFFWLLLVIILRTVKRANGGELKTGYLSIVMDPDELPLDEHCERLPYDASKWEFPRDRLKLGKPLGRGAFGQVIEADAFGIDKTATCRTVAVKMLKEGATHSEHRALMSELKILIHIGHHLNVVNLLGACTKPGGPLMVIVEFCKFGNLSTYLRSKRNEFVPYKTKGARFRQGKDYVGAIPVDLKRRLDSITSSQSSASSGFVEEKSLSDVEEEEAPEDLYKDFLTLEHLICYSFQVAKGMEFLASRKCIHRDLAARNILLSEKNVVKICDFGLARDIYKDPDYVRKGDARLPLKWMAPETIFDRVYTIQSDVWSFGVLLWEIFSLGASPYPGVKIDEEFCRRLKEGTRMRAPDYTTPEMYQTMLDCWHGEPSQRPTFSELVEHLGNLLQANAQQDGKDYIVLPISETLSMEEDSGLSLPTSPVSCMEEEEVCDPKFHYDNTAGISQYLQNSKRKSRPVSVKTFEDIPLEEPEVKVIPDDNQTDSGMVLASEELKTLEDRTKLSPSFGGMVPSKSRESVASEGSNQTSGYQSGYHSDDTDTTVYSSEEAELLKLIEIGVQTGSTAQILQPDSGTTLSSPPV

VEGFR2 [2] = target: T1, VEGFR2; remark: listed apart in the source
any gene target = settings: cited from earlier work
FGFR1 = FGFR1 (Homo sapiens, UniProt P11362)
FGFR1, sequence (P11362 22-822, species assumed): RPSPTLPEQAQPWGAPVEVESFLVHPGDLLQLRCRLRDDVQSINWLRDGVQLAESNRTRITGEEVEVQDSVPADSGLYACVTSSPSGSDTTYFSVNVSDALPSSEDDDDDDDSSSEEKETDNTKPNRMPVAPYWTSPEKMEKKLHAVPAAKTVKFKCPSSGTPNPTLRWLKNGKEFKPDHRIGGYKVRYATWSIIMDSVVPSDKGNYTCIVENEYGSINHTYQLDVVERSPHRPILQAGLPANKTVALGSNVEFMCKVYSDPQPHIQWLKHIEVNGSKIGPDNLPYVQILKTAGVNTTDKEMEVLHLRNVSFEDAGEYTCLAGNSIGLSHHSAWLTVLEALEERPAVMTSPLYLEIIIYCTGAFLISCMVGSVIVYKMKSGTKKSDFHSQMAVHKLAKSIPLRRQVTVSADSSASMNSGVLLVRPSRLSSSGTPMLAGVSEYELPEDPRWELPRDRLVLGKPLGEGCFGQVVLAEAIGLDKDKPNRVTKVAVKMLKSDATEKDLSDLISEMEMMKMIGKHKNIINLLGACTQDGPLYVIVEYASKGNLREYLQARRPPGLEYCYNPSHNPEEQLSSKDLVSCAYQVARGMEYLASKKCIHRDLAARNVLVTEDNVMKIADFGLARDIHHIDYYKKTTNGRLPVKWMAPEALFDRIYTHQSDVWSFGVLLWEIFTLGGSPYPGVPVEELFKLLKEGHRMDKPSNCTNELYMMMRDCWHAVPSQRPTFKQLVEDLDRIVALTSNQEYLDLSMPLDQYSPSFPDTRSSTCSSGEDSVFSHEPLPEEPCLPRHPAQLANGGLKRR

[3] = average of VEGFR2 and FGFR1 relative IC50
[4] = reported IC50 to VEGFR2; read-out: VEGFR2 IC50_μM; cited from earlier work
[5] = relative IC50: reported IC50 toward VEGFR2 divided by next lowest reported IC50 to any gene target
[6] = lowest reported IC50 to any gene target, read-out: min IC50
[7] = next lowest IC50 value to any gene target, read-out: Min IC50_μM
[8] = relative IC50: reported IC50 toward FGFR1 divided by next lowest reported IC50 to any gene target
[9] = reported IC50 to VEGFR2; Table 3, selective inhibitors of VEGFR2; read-out: VEGFR2 IC50_μM; cited from earlier work
[10] = next lowest IC50 value to any gene target, Table 3, read-out: Min IC50_μM

Structure (SMILES)	VEGFR2, rIC50 (VEGFR2 [2]; [5])	FGFR1, rIC50 (FGFR1; [8])	avg rIC50 (VEGFR2 and FGFR1; [3])	IC50 (any gene target; [6]) [nM]	IC50 (any gene target; [7]) [nM]	further results
COc1cc2c(Nc3ccc(C#N)cc3F)ncnc2cc1OCCn1ccnn1 [compound 5329034, Anilinoquinazoline deriv. 36, reference compound]	0.5	10.0	5.3	300	600	IC50 (VEGFR2 [1]; [4]): 300 nM
CNC(=O)c1cccc2cc(Oc3ccnc4cc(OCC5(N)CC5)c(OC)cc34)ccc12 [compound 25031915, Lucitanib]	3.6	–	3.0	10	–	FGFR1, rIC50 (FGFR1): 2.5
COc1cc2c(cc1F)C(c1ccccc1Cl)=NC1=C(C)NNC1=N2 [compound 135398512, 5-(2-Chlorophenyl)-7-fluoro-1,2-dihydro-8-methoxy-3-methylpyrazolo(3,4-b)(1,4)benzodiazepine]	–	–	1.6	–	–	VEGFR2, rIC50 (VEGFR2 [2]): 0.4; IC50 (any gene target; read-out: Min IC50_μM): 24 nM; IC50 (any gene target; read-out: min IC50): 24 nM; FGFR1, rIC50 (FGFR1): 2.8
Cc1nnc(-c2cn3ncnc(Nc4cnc5[nH]ccc5c4)c3c2C(C)C)o1 [compound 44449577, 6-(5-Methyl-1,3,4-oxadiazol-2-yl)-5-propan-2-yl-N-(1H-pyrrolo[2,3-b]pyridin-5-yl)pyrrolo[2,1-f][1,2,4]triazin-4-amine]	0.5	–	–	–	–	avg rIC50 (VEGFR2 and FGFR1): 1.2; IC50 (any gene target; read-out: Min IC50_μM): 61 nM; IC50 (any gene target; read-out: min IC50): 61 nM; FGFR1, rIC50 (FGFR1): 2.0
NC(=O)c1c(OCc2c(F)cc(Br)cc2F)nsc1NC(=O)NCCCCN1CCCC1 [compound 9811611, 3-((4-Bromo-2,6-difluorobenzyl)oxy)-5-(3-(4-(pyrrolidin-1-yl)butyl)ureido)isothiazole-4-carboxamide]	0.4	6.7	3.6	1	3.08	–
CONC(=O)c1cc(Nc2ncnn3cc(-c4nnc(N(C)C)o4)c(C(C)C)c23)c(F)cc1F [compound 9982235, 5-[6-(5-Dimethylamino-[1,3,4]oxadiazol-2-yl)-5-isopropyl-pyrrolo[2,1-f][1,2,4]triazin-4-ylamino]-2,4-difluoro-N-methoxy-benzamide, reference compound]	1.0	1.1	1.0	7	–	IC50 (VEGFR2 [1]; [9]): 6.7 nM; IC50 (any gene target; [10]): 6.7 nM
CCc1nnc(-c2cn3ncnc(Nc4cc(C(=O)NOC)c(F)cc4F)c3c2C(C)C)o1 [compound 11374515, 5-[6-(5-Ethyl-[1,3,4]oxadiazol-2-yl)-5-isopropyl-pyrrolo[2,1-f][1,2,4]triazin-4-ylamino]-2,4-difluoro-N-methoxy-benzamide, reference compound]	1.0	2.6	1.8	2	–	IC50 (VEGFR2 [1]; [9]): 1.8 nM; IC50 (any gene target; [10]): 1.8 nM
COc1ccc(N2Cc3cnc(Nc4ccccc4)nc3N([C@@H]3CC[C@@H](O)C3)C2=O)cc1 [compound 9910609, (+)-(1R,3R)-1-(3-Hydroxy-cyclopentyl)-3-(4-methoxy-phenyl)-7-phenylamino-3,4-dihydro-1H-pyrimido[4,5-d]pyrimidin-2-one]	0.4	2.4	1.4	28	28	–
CNC(=O)c1cccc2cc(Oc3ccnc4cc(OCC5(N)CC5)c(OC)cc34)ccc12.Cl [compound 57379018, 6-((7-((1-Aminocyclopropyl)methoxy)-6-methoxyquinolin-4-yl)oxy)-N-methyl-1-naphthamide hydrochloride]	3.6	–	3.0	–	–	IC50 (any gene target; read-out: min IC50): 10 nM; FGFR1, rIC50 (FGFR1): 2.5

Continued, in another order:

VEGFR2, rIC50 (VEGFR2 [2]; [5])	FGFR1, rIC50 (FGFR1; [8])	Structure (SMILES)	avg rIC50 (VEGFR2 and FGFR1; [3])	IC50 (any gene target; [6]) [nM]	IC50 (any gene target; [7]) [nM]	further results
0.7	3.5	COC(=O)c1ccc2c(C(=Nc3ccc(-n4c(C)ccc4CN4CCN(C)CC4)cc3)c3ccccc3)c(O)[nH]c2c1 [compound 141475848, Methyl 2-hydroxy-3-[N-[4-[2-methyl-5-[(4-methylpiperazin-1-yl)methyl]pyrrol-1-yl]phenyl]-C-phenylcarbonimidoyl]-1H-indole-6-carboxylate, reference compound]	2.1	7	9.9	IC50 (VEGFR2 [1]; [4]): 6.5 nM
1.0	2.2	CONC(=O)c1cc(Nc2ncnn3cc(-c4nnc(CS(C)(=O)=O)o4)c(C(C)C)c23)c(F)cc1F [compound 10436729, 2,4-Difluoro-5-[5-isopropyl-6-(5-methanesulfonylmethyl-[1,3,4]oxadiazol-2-yl)-pyrrolo[2,1-f][1,2,4]triazin-4-ylamino]-N-methoxy-benzamide, reference compound]	1.6	2	–	IC50 (VEGFR2 [1]; [9]): 2.1 nM; IC50 (any gene target; [10]): 2.1 nM
0.5	2.5	COc1ccc(N2Cc3cnc(Nc4ccccc4)nc3N([C@H]3CC[C@H](O)C3)C2=O)cc1 [compound 11407794, (−)-(1S,3S)-1-(3-Hydroxy-cyclopentyl)-3-(4-methoxy-phenyl)-7-phenylamino-3,4-dihydro-1H-pyrimido[4,5-d]pyrimidin-2-one]	1.5	33	33	–
5.8	3.0	Nc1c(-c2nc3ccccc3[nH]2)c(=O)[nH]c2ccccc12 [compound 135410282, 4-Amino-3-(1H-benzo[d]imidazol-2-yl)quinolin-2(1H)-one]	4.4	10	–	–
1.0	3.1	CONC(=O)c1cc(Nc2ncnn3cc(-c4nnc(CC(C)C)o4)c(C(C)C)c23)c(F)cc1F [compound 11352215, 2,4-Difluoro-5-[6-(5-isobutyl-[1,3,4]oxadiazol-2-yl)-5-isopropyl-pyrrolo[2,1-f][1,2,4]triazin-4-ylamino]-N-methoxy-benzamide, reference compound]	2.1	2	–	IC50 (VEGFR2 [1]; read-out: VEGFR2 IC50_μM; reported IC50 to VEGFR2; Table 3, selective inhibitors of VEGFR2; cited from earlier work): 2.1 nM; IC50 (any gene target; [10]): 2.1 nM
1.1	–	CONC(=O)c1cc(Nc2ncnn3cc(-c4nnc(C)[nH]4)c(C(C)C)c23)c(F)cc1F [compound 11328182, 2,4-Difluoro-5-[5-isopropyl-6-(5-methyl-4H-[1,2,4]triazol-3-yl)-pyrrolo[2,1-f][1,2,4]triazin-4-ylamino]-N-methoxy-benzamide]	–	46	–	avg rIC50 (VEGFR2 and FGFR1): 1.0; IC50 (any gene target; lowest reported IC50 to any gene target, read-out: Min IC50_μM): 46 nM; FGFR1, rIC50 (FGFR1): 1.0
1.0	1.8	CONC(=O)c1cc(Nc2ncnn3cc(-c4nnc(CC(F)(F)F)o4)c(C(C)C)c23)c(F)cc1F [compound 11455031, 2,4-Difluoro-5-{5-isopropyl-6-[5-(2,2,2-trifluoro-ethyl)-[1,3,4]oxadiazol-2-yl]-pyrrolo[2,1-f][1,2,4]triazin-4-ylamino}-N-methoxy-benzamide, reference compound]	1.4	25	–	IC50 (VEGFR2 [1]; [9]): 25 nM; IC50 (any gene target; [10]): 25 nM
0.5	3.1	Cc1cc2cc(Nc3ncnn4cc(-c5nnc(C)o5)c(C(C)C)c34)cnc2[nH]1 [compound 22273644, 5-Isopropyl-6-(5-methyl-1,3,4-oxadiazol-2-yl)-N-(2-methyl-1H-pyrrolo[2,3-b]pyridin-5-yl)pyrrolo[2,1-f][1,2,4]triazin-4-amine]	1.8	25	53	–
8.3	0.4	C[C@@H](Oc1ccc2[nH]nc(-c3nc4cc(N5CCN(C)CC5)ccc4[nH]3)c2c1)c1c(Cl)cncc1Cl [compound 136211077, 5-[(R)-1-(3,5-Dichloropyridine-4-yl)ethoxy]-3-[5-(4-methylpiperazine-1-yl)-1H-benzoimidazole-2-yl]-1H-indazole]	4.4	1	–	IC50 (any gene target; Table 2, lowest reported IC50 to any gene target, read-out: Min IC50_μM): 2 nM
